The values that follow come from PubChem BioAssay AID330 (DTP/NCI, 2004).

The test relates to P388 leukemia ip, CD2F1 mice, survival T/C. Kind of test: NCI In Vivo Anticancer Drug Screen. Data for tumor model P388 Leukemia (intraperitoneal) in CD2F1 (CDF1) mice. To be noted: endpoint: median survival time, higher = longer survival. In short, it runs like this:
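Mice carrying the transplanted tumor received test compound or vehicle. Survival was recorded in each group, and the value is the treated-group measurement divided by that of the vehicle-treated control group.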

The mark [1] stands for this setting: dose: 25.0 mg/kg/injection, schedule: Q01DX005 (ip), vehicle: Klucel (hydroxypropylcellulose) (HPC).
The mark [2] stands for this setting: dose: 50.0 mg/kg/injection, schedule: Q01DX005 (ip), vehicle: Klucel (hydroxypropylcellulose) (HPC).
Where [3] appears, read: dose: 100.0 mg/kg/injection, schedule: Q01DX005 (ip), vehicle: Klucel (hydroxypropylcellulose) (HPC).
Setting [4] is: dose: 50.0 mg/kg/injection, schedule: Q01DX005 (ip), vehicle: saline with Tween-80.
Where [5] appears, read: dose: 100.0 mg/kg/injection, schedule: Q01DX005 (ip), vehicle: saline with Tween-80.
Setting [6] is: dose: 200.0 mg/kg/injection, schedule: Q01DX005 (ip), vehicle: saline with Tween-80.
[7] abbreviates: dose: 12.5 mg/kg/injection, schedule: Q01DX005 (ip), vehicle: saline with Tween-80.
[8] abbreviates: dose: 60.0 mg/kg/injection, schedule: Q01DX005 (ip), vehicle: saline with Tween-80.
[9] abbreviates: dose: 120.0 mg/kg/injection, schedule: Q01DX005 (ip), vehicle: saline with Tween-80.
Where [10] appears, read: dose: 240.0 mg/kg/injection, schedule: Q01DX005 (ip), vehicle: saline with Tween-80.

Values joined by “and” are separate entries in the source; they are usually repeats but may differ in a detail not shown here. Equal values may be shown once. Toxic doses and inconclusive results are not listed.

For `CCN(CC)CCOC(=O)Nc1c(Cl)cccc1Cl`, the T/C under setting [1] is 100 % of control; the T/C under setting [2] was 107 % of control; the T/C (dose: 60.0 mg/kg/injection, schedule: Q01DX005 (ip), vehicle: Klucel (hydroxypropylcellulose) (HPC)) is 100 % of control; the T/C under setting [3] was 100 % of control.

As to `C=CCOc1c2c(cc3ccc(=O)oc13)CC=CO2`, the T/C by setting is: (dose: 12.5 mg/kg/injection, schedule: Q01DX009 (ip), vehicle: Klucel (hydroxypropylcellulose) (HPC)) 95 % of control; (dose: 25.0 mg/kg/injection, schedule: Q01DX009 (ip), vehicle: Klucel (hydroxypropylcellulose) (HPC)) 105 % of control; (dose: 50.0 mg/kg/injection, schedule: Q01DX009 (ip), vehicle: Klucel (hydroxypropylcellulose) (HPC)) 98 % of control and 100 % of control; (dose: 100.0 mg/kg/injection, schedule: Q01DX009 (ip), vehicle: Klucel (hydroxypropylcellulose) (HPC)) 112 % of control.

Regarding `Cc1ccc(C2CCC(C#N)=CN2C)cc1` (stereo not drawn), the T/C was 94 % of control (dose: 50.0 mg/kg/injection, schedule: Q01DX005 (ip), vehicle: Klucel + Tween-80); 98 % of control (dose: 100.0 mg/kg/injection, schedule: Q01DX005 (ip), vehicle: Klucel + Tween-80); 100 % of control (dose: 200.0 mg/kg/injection, schedule: Q01DX005 (ip), vehicle: Klucel + Tween-80).

Consider `O=C1C=CC(=O)C2=C1CCCC2`, for which the T/C by setting is: (dose: 2.0 mg/kg/injection, schedule: Q01DX009 (ip), vehicle: saline with Tween-80) 100 % of control; (dose: 2.9 mg/kg/injection, schedule: Q01DX009 (ip), vehicle: saline with Tween-80) 100 % of control; (dose: 3.12 mg/kg/injection, schedule: Q01DX009 (ip), vehicle: saline with Tween-80) 100 % of control; (dose: 4.5 mg/kg/injection, schedule: Q01DX009 (ip), vehicle: saline with Tween-80) 100 % of control; (dose: 6.25 mg/kg/injection, schedule: Q01DX009 (ip), vehicle: saline with Tween-80) 100 % of control; (dose: 6.5 mg/kg/injection, schedule: Q01DX009 (ip), vehicle: saline with Tween-80) 100 % of control. Further, the T/C (dose: 12.5 mg/kg/injection, schedule: Q01DX009 (ip), vehicle: saline with Tween-80) is 102 % of control.

On to `COC(=O)c1c2cccc(C)c2nc2c(C)cccc12`, for which the T/C is, setting by setting: under setting [4], 107 % of control; under setting [5], 107 % of control; under setting [6], 100 % of control.

For `Cc1cc(O)c2c(c1)C(=O)C(c1c(O)c3c(C)cccc3oc1=O)=C(c1c(O)c3c(C)cccc3oc1=O)C2=O`, the T/C is, setting by setting: (dose: 14.0 mg/kg/injection, schedule: Q01DX005 (ip), vehicle: Klucel (hydroxypropylcellulose) (HPC)) 92 % of control; (dose: 28.0 mg/kg/injection, schedule: Q01DX005 (ip), vehicle: Klucel (hydroxypropylcellulose) (HPC)) 91 % of control; (dose: 56.0 mg/kg/injection, schedule: Q01DX005 (ip), vehicle: Klucel (hydroxypropylcellulose) (HPC)) 89 % of control; (dose: 112.0 mg/kg/injection, schedule: Q01DX005 (ip), vehicle: Klucel (hydroxypropylcellulose) (HPC)) 89 % of control.

Regarding `NC(=O)/N=[N+](\[O-])c1ccccc1`, the T/C is 98 % of control (dose: 50.0 mg/kg/injection, schedule: Q04DX003 (ip), vehicle: Klucel (hydroxypropylcellulose) (HPC)) and 94 % of control (dose: 100.0 mg/kg/injection, schedule: Q04DX003 (ip), vehicle: Klucel (hydroxypropylcellulose) (HPC)).

Take `COC(=O)NC1CC1C(=O)OC` (stereo not drawn): the T/C is, setting by setting: (dose: 100.0 mg/kg/injection, schedule: Q01DX002 (ip), vehicle: saline) 104 % of control; (dose: 200.0 mg/kg/injection, schedule: Q01DX002 (ip), vehicle: saline) 99 % of control; (dose: 400.0 mg/kg/injection, schedule: Q01DX002 (ip), vehicle: saline) 102 % of control.

As for `O=C1C=CC(=O)c2nc3ccccc3nc21`, the T/C was 87 % of control (dose: 1.56 mg/kg/injection, schedule: Q01DX009 (ip), vehicle: distilled water + Tween-80); 103 % of control (dose: 3.12 mg/kg/injection, schedule: Q01DX009 (ip), vehicle: distilled water + Tween-80); 105 % of control and 106 % of control (dose: 6.25 mg/kg/injection, schedule: Q01DX009 (ip), vehicle: distilled water + Tween-80).

`CC(=O)OC(OC(C)=O)c1ccc([N+](=O)[O-])c([N+](=O)[O-])c1`: the T/C was 104 % of control (dose: 12.5 mg/kg/injection, schedule: Q01DX010 (ip), vehicle: saline); 109 % of control (dose: 25.0 mg/kg/injection, schedule: Q01DX010 (ip), vehicle: saline); 100 % of control (dose: 50.0 mg/kg/injection, schedule: Q01DX010 (ip), vehicle: saline).

`C=C1CC2(OC1=O)C(=O)N(C)c1ccc(I)cc12` (stereo not drawn): the T/C is, setting by setting: (dose: 25.0 mg/kg/injection, schedule: Q01DX009 (ip), vehicle: saline) 116 % of control; (dose: 50.0 mg/kg/injection, schedule: Q01DX009 (ip), vehicle: saline) 87 % of control.

Regarding `Cc1ccc(F)cc1NC(=S)NN`, the T/C reads like this: (dose: 7.5 mg/kg/injection, schedule: Q01DX005 (ip), vehicle: Klucel (hydroxypropylcellulose) (HPC)) 100 % of control; (dose: 15.0 mg/kg/injection, schedule: Q01DX005 (ip), vehicle: Klucel (hydroxypropylcellulose) (HPC)) 99 % of control; (dose: 30.0 mg/kg/injection, schedule: Q01DX005 (ip), vehicle: Klucel (hydroxypropylcellulose) (HPC)) 91 % of control.

Regarding `CC1[C@@]2(O[C@@H]3C=C4C5CCC6Cc7nc8c(nc7C[C@@]6(C)C5C[C@H](O)[C@@]4(C)[C@]13O)CC1CCc3c(cc4c5c3C(O)C[C@H]5[C@@H](C)C3(O4)OC(C)(C)CC3O)[C@]1(C)C8)O[C@@](C)(CO)C[C@@H]2O` (stereo partly drawn), the T/C by setting is: (dose: 12.5 micrograms/kg/injection, schedule: Q01DX009 (ip), vehicle: saline + alcohol) 109 % of control; (dose: 25.0 micrograms/kg/injection, schedule: Q01DX009 (ip), vehicle: saline + alcohol) 107 % of control; (dose: 100.0 micrograms/kg/injection, schedule: Q01DX009 (ip), vehicle: saline + alcohol) 98 % of control.

As to `C=CCOC(=O)C12CCC(C)(C)CC1C1=CCC3C4(C)CCC(O)C(C)(CO)C4CCC3(C)C1(C)CC2` (stereo not drawn), the T/C is, setting by setting: (dose: 3.0 mg/kg/injection, schedule: Q01DX005 (ip), vehicle: saline with Tween-80) 111 % of control; (dose: 6.0 mg/kg/injection, schedule: Q01DX005 (ip), vehicle: saline with Tween-80) 114 % of control; (dose: 12.0 mg/kg/injection, schedule: Q01DX005 (ip), vehicle: saline with Tween-80) 100 % of control; under setting [7], 92 % of control.

As for `CC(=O)Oc1cccc2c1CC(C[Se]c1ccccc1)C(=O)O2` (stereo not drawn), the T/C runs as follows: under setting [4], 94 % of control; under setting [5], 89 % of control.

For `COC(=O)CN(C)P(=O)(N1CC1)N1CC1`, the T/C (dose: 1.87 mg/kg/injection, schedule: Q01DX005 (ip), vehicle: saline) was 107 % of control; the T/C (dose: 3.75 mg/kg/injection, schedule: Q01DX005 (ip), vehicle: saline) is 124 % of control; the T/C (dose: 7.5 mg/kg/injection, schedule: Q01DX005 (ip), vehicle: saline with Tween-80) was 198 % of control; the T/C (dose: 15.0 mg/kg/injection, schedule: Q01DX005 (ip), vehicle: saline) is 197 % of control.

For the molecule `CC(C)(O)c1cc2nc3ccccc3nc2n1CCO`, the T/C by setting is: under setting [8], 109 % of control; under setting [9], 107 % of control; under setting [10], 108 % of control.

Take `CC1=CC2N(C=C1)C(c1ccc(Cl)cc1)=NON2c1cc(C)ccn1` (stereo not drawn): the T/C under setting [4] was 92 % of control; the T/C under setting [5] is 86 % of control and 94 % of control; the T/C under setting [9] was 87 % of control; the T/C under setting [6] is 100 % of control; the T/C under setting [10] was 93 % of control.

As to `Clc1ccc(CCNCc2ccc(Cl)cc2)cc1`, the T/C runs as follows: under setting [7], 87 % of control; (dose: 25.0 mg/kg/injection, schedule: Q01DX005 (ip), vehicle: saline with Tween-80) 97 % of control; under setting [4], 106 % of control and 97 % of control.

In the case of `C[Si]1(C)CC[Si](C)(C)S1`, the T/C is, setting by setting: under setting [4], 103 % of control; under setting [5], 108 % of control.

As to `O=C1CSC(c2cccc(Br)c2)N1c1nncs1` (stereo not drawn), the T/C reads like this: under setting [8], 101 % of control; under setting [9], 97 % of control; under setting [10], 93 % of control.

As to `CN(C)C1C(=O)C(C(N)=O)=C(O)C2(O)C(=O)C3=C(O)c4c(O)cccc4C(C)(O)C3CC12` (stereo not drawn), the T/C reads like this: under setting [1], 94 % of control; under setting [2], 95 % of control; under setting [3], 95 % of control.
